{
  "source": "paper PMC4014123",
  "about": "(Acta Crystallographica Section D: Biological Crystallography, 2014)",
  "origin": "cited, not measured here",
  "test_system": "I223R/H275Y dual mutation of neuraminidase from influenza A H1N1",
  "conditions": "I223R/H275Y dual mutant vs wild type; ref van der Vries et al., 2012; cited from earlier work",
  "data": [
    {"smiles": "CCOC(=O)C1=C[C@@H](OC(CC)CC)[C@H](NC(C)=O)[C@@H](N)C1", "note": "[oseltamivir]", "values": [
      {"measurement": "resistance towards oseltamivir relative to wild type", "result": "approximately 7500 times"}
    ]}
  ]
}
